Reference: patent US7579488B2 (Eli Lilly and Company, priority 2003, dated 2009)
pEC50, pIC50: −log10 of the molar value. “And” between values parts separate entries of the source, which are not always exact repeats. Identical values can stand only once. Like-named read-outs stand apart in the source and are kept apart here.

What was measured:
VDR = target: T1, VDR (Homo sapiens, UniProt P11473); assay: VDR CTF (Caco-2 cell co-transfection) assay; format: cell-based; settings: Caco-2 cells, pGal4-VDR-LBD co-transfection, luciferase; several values separated by /
T1 construct: the receptor expression vector pGal4-VDR-LBD (10 ng); expressed in transfected cells; host or cells: Caco-2 cells
T1 sequence (P11473 127-423 limits assumed): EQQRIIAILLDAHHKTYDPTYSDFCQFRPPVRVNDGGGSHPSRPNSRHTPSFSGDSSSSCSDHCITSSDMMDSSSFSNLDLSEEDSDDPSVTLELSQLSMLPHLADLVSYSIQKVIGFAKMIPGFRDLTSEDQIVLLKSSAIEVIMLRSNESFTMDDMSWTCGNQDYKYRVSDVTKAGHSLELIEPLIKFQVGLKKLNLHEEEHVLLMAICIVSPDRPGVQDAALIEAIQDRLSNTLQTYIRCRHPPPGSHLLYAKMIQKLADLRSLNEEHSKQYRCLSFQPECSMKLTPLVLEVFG
Description: 2. The Caco-2 Cell Co-Transfection Assay:
The Caco-2 cell assay is an indicator for the undesirable condition of hypercalcemia. This co-transfection assay is a surrogate assay for in vivo calcemic activity of VDR ligands. […] Preferred assay results are greater than 1000 nM.
(2) Materials and Method for the Caco-2 Cell Assay:
Caco-2 cells, grown in phenol red free, DMEM (Invitrogen, Carlsbad, Calif.) containing 10% charcoal-stripped FCS (Hyclone, Logan, Utah), were transfected with Fugene 6 reagent (Roche Diagnostics, Indianapolis, Ind.). Cells (5000/well) were plated 18 h before transfection in a 96 well plate. The Cells were transfected with Gal4-responsive reporter pFRLuc (150 ng, Stratagene, La Jolla Calif.) and the receptor expression vector pGal4-VDR-LBD (10 ng), along with Fugene 6 reagent (0.2 μl/well). The DNA-Fugene complex was formed by incubating the mixture for 30 min at room temperature. The cells were transfected in triplicate for 5 h, and treated with various concentrations of VDR ligands (form 0.01 nM to 10,000 nM concentration range) 18 h post-transfection. The luciferase activity was quantified using Steady-Glo reagent kit (Promega, Madison, Wis.) as per manufacturer's specifications.

IL-10 = IL-10 induction assay; format: cell-based; settings: Homo sapiens, PBMC, TPA/PHA stimulated human PBMCs, IL-10 in supernatant by immunoassay; several values separated by /
From the text: 6. The IL-10 Induction Assay
This is an in vitro efficacy assay for psoriasis, abscess and adhesion. Psoriasis involves both keratinocytes and immune cells. IL-10 is a unique cytokine because it is anti-inflammatory and immunosuppressive. This assay tells us whether a VDRM is able to function as an agonist in PBMCs ([…]) or not.
(6) Materials and Method for Human IL-10 Induction Assay:
Isolation of Peripheral Blood Mononuclear Cells (PBMCs):
B. Prepare sterile tubes with ficol.
C. Add diluted blood to tubes.
E. Discard the top layer and collect the cells from middle layer.
F. Divide all cells into four tubes and add media.
H. Aspirate off media and resuspend.
J. Centrifuge. at 1200 rpm for 10 minutes.
M. Dissolve PHA in water.
N. Plate TPA/PHA treated PBMCs in well plates.
Sample Collection and Assay:
S. Remove all the cells by centrifugation and assay the supernatant for IL-10 by immunoassay.
1) T. Perform […] using anti-human IL-10 antibody coated beads, as described by the manufacturer (Linco Research Inc., St. Charles, Mo.).

KERtr cells = assay: Keratinocyte proliferation assay; format: cell-based; settings: Homo sapiens, 72 h, BrdU incorporation, several values separated by /, read-out: Kera. Prolif. IC50
rat osteocalcin promoter = assay: OCN (osteocalcin) promoter assay; format: cell-based; settings: Rattus norvegicus, 48 h, RG-15 (ROS 17/2.8) cells, 48 hr treatment, luciferase; several values separated by /
Summary of the method: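 Rat osteoblast-like RG-15 (ROS 17/2.8) cells stably carrying a luciferase reporter driven by the osteocalcin promoter, treated with compounds in DMSO (0.01% v/v final) in medium with 2% FBS. After 48 hr at 37 °C, cells were lysed and luciferase activity measured.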

female DBF mice [1] = assay: Mouse hypercalcemia assay; settings: oral gavage for 6 days; serum ionized calcium 6 hours after last dosing
From the text: The Mouse Hypercalcemia Assay
(§1) The Mouse Hypercalcemia Assay is a six day hypercalcemia test for toxicity and selectivity.
(§2) (4) Materials and Method for the Mouse Hypercalcemia Assay:
(§3) Weanling, virus-antibody-free, five to six weeks old female DBF mice (Harlan, Indianapolis, Ind.) are used for all the studies. Animals are allowed to acclimate to local vivarium conditions for 2 days. […] The animals then are divided into groups with 4-5 mice per group. Different doses of test compounds prepared in 10% Ethanol and 90% sesame oil are administered to mice orally via gavage for 6 days. 1α-25(OH)2D3 0.5 μg/kg/d was also given to one group of mice as the positive control. […] Raw data of group differences is assessed by analysis of variance (ANOVA) using Fisher's protected least significant difference (PLSD) where the significance level was P<0.05.

RXR-VDR heterodimer = target: T2, RXR-VDR heterodimer (Homo sapiens, UniProt P11473); assay: RXR-VDR heterodimerization assay (SaOS-2 cells); format: cell-based; settings: Gal4-RXR-DEF/VP16-VDR-LBD luciferase reporter, several values in a cell separated by /
T2 construct: Add the Gal4-RXR-DEF and VP16-VDR-LBD; expressed in transfected cells; host or cells: SaOS-2 cells
T2 sequence (P11473 127-423 limits assumed): T1 sequence (P11473 127-423 limits assumed)
T2 sequence (P19793 201-462 partner limits assumed): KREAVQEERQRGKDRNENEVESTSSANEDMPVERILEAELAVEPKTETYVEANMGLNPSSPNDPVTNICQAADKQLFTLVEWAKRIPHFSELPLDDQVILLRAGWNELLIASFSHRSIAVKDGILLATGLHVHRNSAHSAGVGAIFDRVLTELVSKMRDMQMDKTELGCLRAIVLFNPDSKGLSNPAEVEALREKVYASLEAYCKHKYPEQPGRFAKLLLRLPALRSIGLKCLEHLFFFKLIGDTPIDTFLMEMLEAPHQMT

female DBF mice [2] = settings: in vivo, po
From the text: The Mouse Hypercalcemia Assay
as §1, §2, §3

Mouse Hypercal (female DBF mice [2]) [µg/kg/day] | Structure (SMILES) | EC50 (VDR) [nM] | pIC50 (IL-10) | pIC50 (KERtr cells) | pEC50 (rat osteocalcin promoter) | Mouse Hypercal (female DBF mice [1]) [µg/kg/day] | pEC50 (RXR-VDR heterodimer)
– | CCC(CC)(c1ccc(OCC(=O)C(C)(C)C)c(C)c1)c1ccc2oc(C(=O)NCC(=O)O)cc2c1 [Ex 32, [(5-{1-[4-(3,3-dimethyl-2-oxo-butoxy)-3-methyl-phenyl]-1-ethyl-propyl}-benzofuran-2-carbonyl)-amino]-acetic acid] | 385 | 7.29 | 8.00 | 9.00 | >300 | 7.51 and 8.40
0.06 | C=C1/C(=C\C=C2/CCC[C@]3(C)[C@@H]([C@H](C)CCCC(C)(C)O)CC[C@@H]23)C[C@@H](O)C[C@@H]1O [AA, 1α,25-dihydroxyvitamin D3] | – | – | – | – | – | –
